Data on one sequence can be found in article PMC7179399, “Development and Characterization of the Shortest Anti-Adhesion Peptide Analogue of B49Mod1” (Molecules, 2020).

Ends that are not written are not given here.

Common to all, as to conditions: 24 h
In one data set the test system is MCF7. It is filed as cell-based, human. How it is done:
(§1) Viability Assay: Equivalent numbers of cells from each cell line was seeded in 96-well plate and incubated at 37 °C for 24 hours before treatment. The cells were treated with different concentration of peptides and incubated for 24 hours at 37 °C. 20 µl of 5mg/ml of MTT reagent was added to each well and incubated for 4 hours at 37 °C. The supernatant was then removed, followed by addition of 150 µl of MTT solvent, with shaking 15 min at room temperature. Absorbance at 590 nm was then measured through the BioTek Synergy H1 microplate reader.

For the next data set, the system named is SKBR3. It is filed as cell-based, human. How it is done: as §1
The test system of data set [1] is human peripheral blood mononuclear cells (PBMCs). Nature of the data set: MTT viability assay, PBMCs. Type of data set: cell-based.
Description: Cell Lines: MDA-MB-468, MDA-MB-231, ZR-75-1, MCF7, and T47D were obtained from the Physical Sciences-Oncology Network (PS-ON) Bioresource Core Facility (PBCF) at American Type Culture Collection (ATCC, Manassas, VA, USA). SKBR3 cell line was a kind gift from Dr. Hyungjin Kim at Stony Brook University. ZR-75-1, MCF7, and T47D were maintained in complete RPMI 1640 media. MDA-MB-468, MDA-MB-231, and SKBR3 were maintained in complete DMEM media. Both complete RPMI and DMEM were supplemented with 10% FBS, 1% penicillin-streptomycin, 1 µg/mL Amphotericin B, 1% of l-glutamine, 2 mM sodium pyruvate, and 10 mM HEPES buffer at pH 8. Human Peripheral Blood Mononuclear Cells (PBMCs) were isolated from fresh human blood by Ficoll-Paque PLUS and cultured in complete RPMI 1640 media.
as §1

Take GFQDVEAQAATCNHTVMA [B18]: the figures for the IC50 in the data set on MCF7 and with SKBR3 were 59.8 ± 5.3 µM and 11.2 ± 3.4 µM, respectively. Besides, the “cytotoxic effect on quiescent PBMCs” value in data set [1] is recorded as “no cytotoxic effect was observed”.
